Reference: EP1282725B1, “METHODS OF MODULATING FUNCTIONS OF POLYPEPTIDE GalNAc TRANSFERASES AND OF SCREENING SUBSTANCES THEREFOR” (Glycozym ApS, priority 2000, dated 2001)

What was measured:
[1] = test system: GalNAc-T3; test: Inhibition of GalNAc-T3 activities with EA2 acceptor substrate; assay type: biochemical, human; conditions: for Activity in the presence of inhibitors: inhibitors 230 mM, EA2 acceptor
Method: (§1) Products were quantified by scintillation counting after chromatography on Dowex-1, octadecyl silica cartridges (Bakerbond), or HPLC (PC3.2/3 or mRPC C2/C18 SC2.1/10 Pharmacia, Smart System). […] Glycopeptides were purified on Supelclean LC-18 columns (1 ml, Supelco), and the number of GalNAc residues incorporated evaluated by MALDI-TOF mass spectrometry. The enzyme sources used were semipurified as previously described by successive sequential ion-exchange chromatographies on Amberlite (IRA95, Sigma) or DEAE Sephacel (Pharmacia), S-Sepharose Fast Flow (Pharmacia), and Mini-S^TM (PC 3.2/3, Pharmacia) using the Smart System (Pharmacia) (28). Secreted GalNAc-T4 was obtained from a stably transfected CHO line ([…]) (8) grown in roller bottles in HAMS F12 supplemented with 10 % Fetal Bovine Serum. The experiments illustrated in Fig. 1 was performed with recombinant secreted GalNAc-T4 obtained from a stably transfected CHO line (8). Experiments illustrated in Figs. 2 and 3 were performed with secreted GalNAc-T4 expressed in High Five cells grown in serum-free medium (8). Structural analysis of glycopeptides were performed by a combination of PFPA (pentafluoropropionic acid) hydrolysis and MALDI-TOF mass spectrometry as previously described (40). Secreted GalNAc-T7 was obtained from infected High Five^TM cells grown in serum-free medium (Invitrogen) in upright roller bottles shaken 140 rpm in waterbaths at 27 °C. GalNAc-T7 was not purified by Mini-S as the yields from cationic chromatography were low due to its low pI (6.4). […] Galactosyl transferring activities of GalNAc-T1, -T2, and -T3, were assayed with a panel of acceptor peptides in standard reaction mixtures containing 100 μM UDP-Gal instead of UDP-GalNAc.

[2] = test system: GalNAc-T4; test: Inhibition of the glycosylation dependent (GalNAc-glycopeptide) activity of GalNAc-T4, time-course MALDI-TOF; assay type: biochemical, human
Method: (§2) MALDI-TOF time-course in terminal reactions were performed in reactions of 25 µl containing 2.5 nmol acceptor (glyco)peptide, 40 nmol UDP-GalNAc, and 0.4 µg GalNAc-T4. Sampling of reactions (1 µl) were purified by nano-scale reversed-phase chromatography (Poros R3, PerSeptive Biosystem) and applied directly to the probe with matrix (41). The amount of GalNAc-transferase added was adjusted so that the reaction with the appropriate peptide was near completion in six hours. Reactions were incubated at 37°C in a shaker bath. At times 0, 2 hours, and 16 hours a 1 µl aliquot was taken and purified. Mass spectra were acquired on either Voyager-DE mass spectrometer equipped with delayed extraction (Perseptive Biosystem Inc.). The matrix used was 2,5-dihydroxybenzoic acid (10 mg/ml, Hewlett-Packard) dissolved in a 2:1 mixture of 0.1% trifluoroacetic acid in 30 % aqueous acetonitrile (Rathburn Ltd.).
Quantification of purified proteins was done by Coomassie stained SDS-PAGE and titration of immunoreactivity with the monoclonal antibody, UH6(4G2) (8). […] Wild-type GalNAc-T4 and mutant GalNAc-T4, GalNAc-T4^459H, were analysed with unglycosylated peptides (represented by PSGL-1) or GalNAc glycosylated glycopeptides (represented by GalNAc3TAP25V21) in reactions of 25 µl containing 2.5 nmol acceptor (glyco)peptide, 40 nmol UDP-GalNAc, and 0.4 µg GalNAc-T4. Time-course assays were motioned by MALDI-TOF. Sampling of reactions (1 µl) were purified by nano-scale reversed-phase chromatography (Poros R3, PerSeptive Biosystem) and applied directly to the probe with matrix. Evaluation of inhibition of the glycopeptide specificity of wild-type GalNAc-T4 with free sugars was performed to establish if the lectin domain recognized carbohydrate. […] Further, analysis was performed with 10 mM α-D-GalNAc-1-benzyl, αGlcNAc-benzyl, and fully occupied GalNAc-glycopeptide, GalNAc6TAP25, at 5 mM.

[3] = test system: GalNAc-T2; test: Inhibition of GalNAc-T2 activities with Muc2 acceptor substrate; assay type: biochemical, human; conditions: for Activity in the presence of inhibitors: inhibitors 230 mM, Muc2 acceptor
Method: as §1

[4] = test system: GalNAc-T2; test: Direct binding to free GalNAc, conventional binding assays; set-up: species or system human
[5] = test system: GalNAc-T4^459D or -T4^459H; test: Glycosylation independent activity of GalNAc-T4 wild-type and lectin mutant with naked peptides, MALDI-TOF; assay type: biochemical, human; conditions: naked peptides (PSGL-1); free sugars
Method: as §2
Quantification of purified proteins was done by Coomassie stained SDS-PAGE and titration of immunoreactivity with the monoclonal antibody, UH6(4G2) (8). […] Wild-type GalNAc-T4 and mutant GalNAc-T4, GalNAc-T4^459H, were analysed with unglycosylated peptides (represented by PSGL-1) or GalNAc glycosylated glycopeptides (represented by GalNAc3TAP25V21) in reactions of 25 µl containing 2.5 nmol acceptor (glyco)peptide, 40 nmol UDP-GalNAc, and 0.4 µg GalNAc-T4. […]

[6] = test system: GalNAc-T4; test: Direct binding to free GalNAc, conventional binding assays; set-up: species or system human
[7] = test system: GalNAc-T7; test: Inhibition of GalNAc-T7 activity with GalNAc2-3EA2 substrate; assay type: biochemical, human; conditions: for inhibition of the activity of GalNAc-T7 with GalNAc2-3EA2: 5 mM concentrations; for Activity in the presence of inhibitors: inhibitors 5 mM, GalNAc2-3EA2 substrate, without inhibitor 6.8
Method: Standard reaction mixtures (50 µl final volume) contained 25 mM cocadylate (pH 7.4), 10 mM MnCl2, 0.25% Triton X-100, 200 µM UDP-[^14C]-GalNAc (2,000 cpm/nmol) (Amer-sham), 200-500 µM acceptor peptides. Products were quantified by scintillation counting after chromatography on Dowex-1, octadecyl silica cartridges (Bakerbond), or HPLC (PC3.2/3 or mRPC C2/C18 SC2.1/10 Pharmacia, Smart System). […] Glycopeptides were purified on Supelclean LC-18 columns (1 ml, Supelco), and the number of GalNAc residues incorporated evaluated by MALDI-TOF mass spectrometry. The enzyme sources used were semipurified as previously described by successive sequential ion-exchange chromatographies on Amberlite (IRA95, Sigma) or DEAE Sephacel (Pharmacia), S-Sepharose Fast Flow (Pharmacia), and Mini-S™ (PC 3.2/3, Pharmacia) using the Smart System (Pharmacia) (28). Secreted GalNAc-T4 was obtained from a stably transfected CHO line (CHO/GalNA-T4/21A) (8) grown in roller bottles in HAMS F12 supplemented with 10 % Fetal Bovine Serum. The experiments illustrated in Fig. 1 was performed with recombinant secreted GalNAc-T4 obtained from a stably transfected CHO line (8). Experiments illustrated in Figs. 2 and 3 were performed with secreted GalNAc-T4 expressed in High Five cells grown in serum-free medium (8). Structural analysis of glycopeptides were performed by a combination of PFPA (pentafluoropropionic acid) hydrolysis and MALDI-TOF mass spectrometry as previously described (40). Secreted GalNAc-T7 was obtained from infected High Five™ cells grown in serum-free medium (Invitrogen) in upright roller bottles shaken 140 rpm in waterbaths at 27 °C. GalNAc-T7 was not purified by Mini-S as the yields from cationic chromatography were low due to its low pI (6.4).
GalNAc-T7 activity was analysed with GalNAc glycosylated glycopeptides (represented by GalNAc2-3EA2 (7)) in reactions of 25 µl containing 2.5 nmol acceptor (glyco)peptide, 40 nmol UDP-GalNAc, and purified GalNAc-T7. […] Further, analysis was performed with 10 mM α-D-GalNAc-1-benzyl, αGlcNAc-benzyl, and fully occupied GalNAc-glycopeptide, GalNAc6TAP25, at 5 mM.

[8] = donor UDP-Gal, without inhibitor 6.3
[9] = donor UDP-GalNAc, without inhibitor 34
[10] = […] free sugars, GalNAc3TAP25V21 glycopeptide substrate
[11] = donor UDP-Gal, without inhibitor 90
[12] = donor UDP-GalNAc, without inhibitor 340

Row | Compound | Activity in the presence of inhibitors [1, 8] [nmol/min/mL] | Activity in the presence of inhibitors [1, 9] [nmol/min/mL] | inhibition of the glycosylation dependent specificity of GalNAc-T4 [2, 10] | Activity in the presence of inhibitors [3, 11] [nmol/min/mL] | Activity in the presence of inhibitors [3, 12] [nmol/min/mL] | inhibition of the activity of GalNAc-T7 with GalNAc2-3EA2 [7] | Activity in the presence of inhibitors [7] [nmol/min/mL] | further results
1 | C[C@@H]1OC(O)[C@@H](O)[C@H](O)[C@@H]1O (stereo partly shown) [Fuc] | 6.5 | 34 | failed to show significant inhibition | 89 | 370 |  |  | 
2 | CC(=O)N[C@H]1C(O)O[C@H](CO)[C@H](O)[C@@H]1O (stereo partly shown) [GalNAc, N-acetylgalactosamine] | 2.5 | 35 |  | 24 | 300 |  |  | direct binding of GalNAc-T2 to free GalNAc [4]: could not detect direct binding; effect on the glycosylation independent activities of GalNAc-T4 [5]: no effect on the general catalytic function of the enzyme; inhibition of the galactosyltransferase activity of GalNAc-T3 ([1]; donor UDP-Gal): selectively inhibited; inhibition of the glycosylation dependent specificity of GalNAc-T4 ([2]; 50 mM sugars (not shown)): approximately 50%; inhibition of the galactosyltransferase activity with Muc2 substrate ([3]; donor UDP-Gal): selectively inhibited; direct binding of GalNAc-T4 to free GalNAc [6]: could not detect direct binding
3 | OC[C@H]1OC(O)[C@H](O)[C@@H](O)[C@H]1O (stereo partly shown) [Gal] | 7.3 | 33 | failed to show significant inhibition | 89 | 300 |  |  | 
4 | CC(=O)N[C@H]1[C@@H](OCc2ccccc2)O[C@H](CO)[C@H](O)[C@@H]1O[C@@H]1O[C@H](CO)[C@H](O)[C@H](O)[C@H]1O [Galβ1-3GaINAcα1-bz, Galβ1-3GalNAcα1-benzyl] |  |  |  |  |  | significantly inhibited | 4.5 | inhibition of GalNAc-T4 glycopeptide activity compared to GalNAc ([2]; concentration not given): neither Gal nor Galβ1-3GalNAcα1-benzyl produced significant inhibition
5 | CC(=O)N[C@H]1C(O)O[C@H](CO)[C@@H](O)[C@@H]1O (stereo partly shown) [GlcNAc] | 7 | 32 | failed to show significant inhibition | 68 | 310 |  |  | 
6 | CC(=O)N[C@H]1[C@@H](OCc2ccccc2)O[C@H](CO)[C@H](O)[C@@H]1O [bz-αGalNAc, α-D-GalNAc-1-benzyl] |  |  |  |  |  | significantly inhibited | 5.4 | 
7 | OC[C@H]1O[C@H](OCc2ccccc2)[C@@H](O)[C@@H](O)[C@@H]1O [bz-αMan] |  |  |  |  |  |  | 6.7 | 
8 | OC[C@H]1O[C@@H](OCc2ccccc2)[C@H](O)[C@@H](O)[C@H]1O [bz-βGal] |  |  |  |  |  | significantly inhibited | 4.7 | 
9 | CC(=O)N[C@H]1[C@@H](OCc2ccccc2)O[C@H](CO)[C@@H](O)[C@@H]1O [αGlcNAc-benzyl] |  |  |  |  |  |  |  | inhibition of the glycosylation dependent specificity of GalNAc-T4 ([2]; 10 mM benzyl glycoside): did not inhibit catalytic activity
